The values below come from ChEMBL document CHEMBL1629524, “2-Azetidinone--a new profile of various pharmacological activities” (Eur J Med Chem, 2010).

SMILES strings stand for the structures. Values after ≈ are worked out from the molar mass of the structure shown.

The subject of one series is Pseudomonas aeruginosa. Briefly: Antimicrobial activity against Pseudomonas aeruginosa ATCC 10145. Format: functional.
The target in another series is T1, Chymase (Homo sapiens, UniProt P23946).
T1 sequence (P23946 whole entry): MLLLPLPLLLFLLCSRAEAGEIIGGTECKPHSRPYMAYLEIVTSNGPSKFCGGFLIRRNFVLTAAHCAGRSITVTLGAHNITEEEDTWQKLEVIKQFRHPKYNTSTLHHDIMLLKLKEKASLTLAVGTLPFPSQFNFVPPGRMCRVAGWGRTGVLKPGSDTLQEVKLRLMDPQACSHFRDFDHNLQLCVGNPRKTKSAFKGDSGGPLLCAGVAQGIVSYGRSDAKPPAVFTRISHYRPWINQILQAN
Briefly: Inhibition of human Chymase.

Series [1] in a line: Inhibition of bovine brain tubulin polymerization. On the set-up: species or system Bos taurus.
A further series deals with T2, Neutrophil elastase (Homo sapiens, UniProt P08246).
T2 sequence (P08246 whole entry): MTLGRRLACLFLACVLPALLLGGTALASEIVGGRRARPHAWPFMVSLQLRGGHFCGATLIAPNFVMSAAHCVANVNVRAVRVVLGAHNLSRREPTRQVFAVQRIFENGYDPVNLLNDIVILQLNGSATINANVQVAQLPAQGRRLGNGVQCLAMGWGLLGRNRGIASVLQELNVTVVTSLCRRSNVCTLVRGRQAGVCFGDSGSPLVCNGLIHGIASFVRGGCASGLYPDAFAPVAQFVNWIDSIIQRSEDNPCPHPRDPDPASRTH
The series can be described thus: Inhibition of human leukocyte elastase.

A short description of series [2]: Inhibition of human cytomegalovirus protease. On the set-up: species or system Human betaherpesvirus 5.
A short description of series [3]: Chemical stability of the compound in human plasma assessed as half life. Format: ADME, cell-free.
For series [4], the target named is 72 kDa type IV collagenase (Homo sapiens, UniProt P08253). The series can be described thus: Inhibition of MMP2.
72 kDa type IV collagenase, sequence (P08253 whole entry): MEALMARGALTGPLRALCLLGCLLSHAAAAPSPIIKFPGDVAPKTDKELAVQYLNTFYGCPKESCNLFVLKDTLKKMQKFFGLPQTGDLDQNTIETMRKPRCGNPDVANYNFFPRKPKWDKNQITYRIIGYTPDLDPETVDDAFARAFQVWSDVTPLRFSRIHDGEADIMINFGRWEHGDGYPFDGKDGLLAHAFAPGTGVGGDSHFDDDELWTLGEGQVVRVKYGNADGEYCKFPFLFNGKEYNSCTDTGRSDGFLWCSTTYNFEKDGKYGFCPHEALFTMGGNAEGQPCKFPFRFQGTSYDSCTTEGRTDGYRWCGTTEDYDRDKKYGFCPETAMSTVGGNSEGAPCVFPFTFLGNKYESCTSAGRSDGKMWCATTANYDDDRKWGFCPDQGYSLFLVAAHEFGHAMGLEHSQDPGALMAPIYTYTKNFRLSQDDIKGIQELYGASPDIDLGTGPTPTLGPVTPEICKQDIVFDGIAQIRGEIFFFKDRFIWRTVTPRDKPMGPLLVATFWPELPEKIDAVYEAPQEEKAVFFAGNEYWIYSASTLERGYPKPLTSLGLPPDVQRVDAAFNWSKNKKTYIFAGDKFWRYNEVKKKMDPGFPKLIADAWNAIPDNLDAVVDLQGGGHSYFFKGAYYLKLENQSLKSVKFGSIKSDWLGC
The nature of series [5]: Inhibition of human Tryptase.
In another series the test system is Rhesus monkey. The series can be described thus: Antidyslipidemic activity in cholesterol-fed rhesus monkey assessed as reduction in plasma cholesterol. Conditions: Macaca mulatta. Format: functional.
For series [6], the system named is Hamster. The series can be described thus: Antidyslipidemic activity in cholesterol-fed hamster model assessed as reduction in liver cholesteryl esters. Format: functional. Conditions: Cricetinae.
For another series, the species on record is Canis familiaris. The series can be described thus: Antidyslipidemic activity in cholesterol-fed Dog assessed as reduction in plasma cholesterol level. Format: functional. Conditions: Canis lupus familiaris.
In series [7] the test system is Hamster. Briefly: Antidyslipidemic activity in hamster assessed as reduction in hepatic cholesteryl esters. Format: functional. Conditions: Cricetinae.
Series [8] relates to Hamster. Briefly: Antidyslipidemic activity in cholesterol-fed hamster assessed as reduction in plasma cholesterol. Format: functional. Conditions: Cricetinae.
The species named for another series is Rattus norvegicus. Briefly: Antidyslipidemic activity in cholesterol-fed rat assessed as reduction in plasma cholesterol. Format: functional.
The nature of series [9]: Antidyslipidemic activity in rat hepatic microsomes assessed as inhibition of […]. Format: functional, Liver.
The next series deals with HepG2. Briefly: Antidyslipidemic activity in human HepG2 cells assessed as inhibition of cholesterol esterification. Format: functional, cell-based.
In the next series the test system is Caco-2. Briefly: Antidyslipidemic activity in human Caco2 cells assessed as inhibition of cholesterol esterification. Format: functional, cell-based.

What is called MIC is the least concentration at which growth counts as inhibited. `O=C1N(c2ccccc2)C(c2ccccc2)C1(Cl)Cl` (stereo unspecified) registered a minimal inhibitory concentration (MIC) with Pseudomonas aeruginosa of 125 µg/mL (≈ 428 µM).
Same read-out and setting: as for `COc1ccc(C2N(c3ccc(OC)cc3)C(=O)C2(Cl)Cl)cc1` (stereo unspecified), the figure is 125 µg/mL (≈ 355 µM); as for `Cc1ccc(C2N(c3ccc(C)cc3)C(=O)C2(Cl)Cl)cc1` (stereo unspecified), 125 µg/mL (≈ 390 µM); as for `O=C1N(c2ccc(Cl)cc2)C(c2ccc(Cl)cc2)C1(Cl)Cl` (stereo unspecified), 125 µg/mL (≈ 346 µM).
Still for that read-out and setting: in the case of `O=C1N(c2ccccc2)C(c2ccc([N+](=O)[O-])cc2)C1(Cl)Cl` (stereo unspecified) it was 125 µg/mL (≈ 371 µM).
The term IC50 denotes the point on the concentration scale where inhibition reaches its midpoint. Take `C[C@@H](NC(=O)N1C(=O)[C@@H](Cc2ccccc2)[C@H]1Oc1ccc(N2CCN(C)CC2)cc1)c1ccccc1`: the half-maximal inhibitory concentration (IC50) against Chymase came out at 0.46 nM.
The compound `COc1ccc(C2C(O)C(=O)N2c2ccccc2)cc1N` (stereo unspecified) showed an IC50 in series [1] of 5000 nM.
As for `CCOC(=O)/C=C1\[C@@H](C(C)O[Si](C)(C)C(C)(C)C)C(=O)N1C(=O)c1cc(OCc2ccccc2)c(OCc2ccccc2)c(OCc2ccccc2)c1` (stereo partly specified), at Neutrophil elastase, half-maximal inhibition (IC50) required 500 nM.
`CC[C@@H](NC(=O)N1C(=O)CC1SC[C@H](CC(C)C)NC(=O)[C@@H](NC(=O)CC(C)(C)C)C(C)(C)C)c1ccccc1` (stereo partly specified) came in with an IC50 in series [2] of 70 nM.
In general, half-life refers to the time needed for the level to fall by half in the phase considered. In the case of `CCOc1ccccc1C[C@@H]1C(=O)N(C(=O)NC(c2ccccc2)c2ccccc2)[C@@H]1Oc1ccc(C(=O)O)cc1`, the half-inhibitory concentration (IC50) on Chymase was found to be 3.1 nM. Moreover, the half-life in series [3] was 6 h.
With `CCOC(=O)/C=C1\NC(=O)[C@@H]1[C@@H](C)OC(=O)c1cc(OCc2ccccc2)c(O)c(OCc2ccccc2)c1`, inhibition in series [4] was half-maximal at 4000 nM (IC50).
In the case of `N=C(N)N1CCC[C@H](C[C@H]2C(=O)N(C(=O)N3CCN(C(=O)CCCCCc4ccccc4)CC3)[C@@H]2C(=O)O)C1`, the IC50 in series [5] was below 1.7 nM.
Take `O=C(O)[C@@H]1[C@@H](CCC2CCCNC2)C(=O)N1C(=O)N1CCN(C(=O)CCCCCc2ccccc2)CC1` (stereo partly specified): in [5], the IC50 amounted to 1.8 nM.
`N=C(N)N1CCC[C@@H](C[C@H]2C(=O)N(C(=O)N3CCN(C(=O)CCCCCc4ccccc4)CC3)[C@@H]2C(=O)O)C1`: the IC50 in [5] is below 1.7 nM.
`CC(C)(C)NC(=O)N1CCN(C(=O)N2C(=O)[C@H](CCCN=C(N)N)[C@H]2C(=O)O)CC1` came in with a 50% inhibitory concentration (IC50) in series [5] of 4 nM.
Broadly, the ED50 is the midpoint of the dose-response relation. With `O=C1[C@H](CC[C@H](O)c2ccc(F)cc2)[C@@H](c2ccc(O)cc2)N1c1ccc(F)cc1` [EZETIMIBE], the figures for the ED50 in the series on Rhesus monkey, with Hamster [6] and in the series filed under Canis familiaris were 0.5 µg/kg, 0.04 mg/kg/day and 0.007 mg/kg/day, respectively.
Turning to `COc1ccc([C@@H]2[C@@H](CCCc3ccccc3)C(=O)N2c2ccc(OC)cc2)cc1` [SCH-48461], the ED50 with Hamster [7] was 2 mg/kg/day; in the series with Hamster [8] it was 1 mg/kg/day; in the series filed under Rattus norvegicus it was 2 mg/kg/day; with Rhesus monkey, 0.2 mg/kg/day. For the same compound, the IC50 turned out to be 26000 nM in [9], 22000 nM with HepG2 and 32000 nM in the series with Caco-2.
